According to US6503935B1, “Imidazoles and related compounds as α1A agonists” (Abbott Laboratories, priority 1998, dated 2003):
Like-named read-outs stand apart in the source and are kept apart here.

Assays:
[1] = target: T1, α1A (rat submaxillary gland) (Rattus norvegicus, UniProt P43140); assay: Radioligand binding with [3H]-prazosin, α1A; details: rat submaxillary gland, [3H]-prazosin
T1 construct: α1A (rat submaxillary gland); from tissue; host or cells: rat submaxillary gland
T1 sequence (P43140 1-466): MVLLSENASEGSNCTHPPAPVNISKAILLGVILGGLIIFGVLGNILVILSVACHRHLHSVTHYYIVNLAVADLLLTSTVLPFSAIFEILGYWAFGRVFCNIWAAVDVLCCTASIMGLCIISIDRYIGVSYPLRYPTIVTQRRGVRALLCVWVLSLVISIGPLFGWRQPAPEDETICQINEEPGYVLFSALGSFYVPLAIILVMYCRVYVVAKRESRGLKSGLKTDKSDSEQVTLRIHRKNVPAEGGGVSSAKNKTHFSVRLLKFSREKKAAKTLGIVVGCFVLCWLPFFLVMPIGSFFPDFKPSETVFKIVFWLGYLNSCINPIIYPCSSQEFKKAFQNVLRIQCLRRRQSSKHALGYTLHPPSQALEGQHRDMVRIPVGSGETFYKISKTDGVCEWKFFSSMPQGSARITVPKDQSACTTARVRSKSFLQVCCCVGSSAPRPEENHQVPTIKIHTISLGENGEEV
Experimental: (§1) For purposes of discussing α1 adrenoceptor subtypes, the IUPHAR convention of using lower case letters to define molecular clones and upper case letters to indicate pharmacologically defined adrenoceptors has been followed. Compounds of formula I were evaluated in radioligand binding assays specific for α1A (rat submaxillary gland), α1b (hamster receptor expressed in mouse fibroblasts) and α1d (rat receptor expressed in mouse fibroblasts) using [^3H]-prazosin as the radioligand as described in Knepper, et al. J. Pharm.

[2] = target: T2, α1b (hamster receptor expressed in mouse fibroblasts) (Mesocricetus auratus, UniProt P18841); assay: Radioligand binding with [3H]-prazosin, α1b; details: hamster receptor expressed in mouse fibroblasts, [3H]-prazosin; read-out: Radioligand Binding Ki α1b (Hamster)
T2 construct: expressed in transfected cells; host or cells: mouse fibroblasts
T2 sequence (P18841 1-515): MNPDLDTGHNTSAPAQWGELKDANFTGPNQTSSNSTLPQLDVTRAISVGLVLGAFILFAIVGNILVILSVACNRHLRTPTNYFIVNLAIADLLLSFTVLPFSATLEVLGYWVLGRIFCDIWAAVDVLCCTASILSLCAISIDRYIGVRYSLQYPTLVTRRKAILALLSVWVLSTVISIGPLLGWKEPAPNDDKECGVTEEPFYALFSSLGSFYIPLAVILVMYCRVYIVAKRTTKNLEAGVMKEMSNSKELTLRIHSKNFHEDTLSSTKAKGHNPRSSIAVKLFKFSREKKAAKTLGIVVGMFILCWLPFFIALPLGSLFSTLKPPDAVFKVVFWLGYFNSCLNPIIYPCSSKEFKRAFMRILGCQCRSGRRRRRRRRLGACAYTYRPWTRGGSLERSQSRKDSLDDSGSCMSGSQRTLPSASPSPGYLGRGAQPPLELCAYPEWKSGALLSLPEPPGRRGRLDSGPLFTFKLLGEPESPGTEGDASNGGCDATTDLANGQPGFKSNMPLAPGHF
Experimental: as §1

[3] = target: T3, α1d (rat receptor expressed in mouse fibroblasts) (Rattus norvegicus, UniProt P23944); assay: Radioligand binding with [3H]-prazosin, α1d; details: rat receptor expressed in mouse fibroblasts, [3H]-prazosin; read-out: Radioligand Binding Ki α1d (Rat)
T3 construct: expressed in transfected cells; host or cells: mouse fibroblasts
T3 sequence (P23944 1-561): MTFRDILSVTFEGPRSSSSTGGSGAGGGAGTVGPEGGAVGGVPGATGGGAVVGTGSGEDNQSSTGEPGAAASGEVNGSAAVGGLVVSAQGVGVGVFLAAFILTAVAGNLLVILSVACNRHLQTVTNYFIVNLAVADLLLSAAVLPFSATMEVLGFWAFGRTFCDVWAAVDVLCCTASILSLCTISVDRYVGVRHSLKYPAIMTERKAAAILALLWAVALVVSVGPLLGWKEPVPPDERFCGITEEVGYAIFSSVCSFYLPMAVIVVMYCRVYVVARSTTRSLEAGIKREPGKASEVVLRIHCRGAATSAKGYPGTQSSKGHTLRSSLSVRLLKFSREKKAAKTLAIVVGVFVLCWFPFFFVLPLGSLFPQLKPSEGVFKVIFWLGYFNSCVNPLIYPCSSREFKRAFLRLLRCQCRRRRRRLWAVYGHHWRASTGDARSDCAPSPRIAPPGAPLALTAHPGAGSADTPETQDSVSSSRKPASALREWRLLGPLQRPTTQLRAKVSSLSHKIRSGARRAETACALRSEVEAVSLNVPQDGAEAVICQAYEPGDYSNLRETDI
Experimental: as §1

[4] = target: T4, α1B (rat spleen) (Rattus norvegicus, UniProt P15823); assay: Agonist contraction of smooth muscle tissue, rat spleen; type: cell-based; details: rat spleen; read-out: Agonist Tissue Response (pD2) α1B (rat spleen) (converted)
T4 construct: α1B (rat spleen) and α1D (rat aorta) receptors; from tissue; host or cells: rat spleen
T4 sequence (P15823 1-515): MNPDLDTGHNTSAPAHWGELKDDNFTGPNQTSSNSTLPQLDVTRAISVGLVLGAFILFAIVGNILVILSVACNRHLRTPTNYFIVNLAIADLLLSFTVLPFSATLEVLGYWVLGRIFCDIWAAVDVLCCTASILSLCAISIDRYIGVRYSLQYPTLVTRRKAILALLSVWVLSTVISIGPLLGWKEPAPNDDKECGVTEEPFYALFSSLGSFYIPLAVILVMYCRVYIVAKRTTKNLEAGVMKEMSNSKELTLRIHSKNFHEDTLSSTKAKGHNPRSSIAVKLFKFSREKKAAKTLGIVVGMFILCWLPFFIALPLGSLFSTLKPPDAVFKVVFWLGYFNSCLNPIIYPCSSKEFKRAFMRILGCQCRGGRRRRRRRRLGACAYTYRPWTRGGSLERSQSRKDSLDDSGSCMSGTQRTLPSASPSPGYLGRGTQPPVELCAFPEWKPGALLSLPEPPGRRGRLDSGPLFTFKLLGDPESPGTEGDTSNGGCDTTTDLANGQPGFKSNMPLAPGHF

[5] = target: T5, α1D (rat aorta) (Rattus norvegicus, UniProt P23944); assay: Agonist contraction of smooth muscle tissue, rat aorta; type: cell-based; details: rat aorta, endothelium removed; read-out: Agonist Tissue Response (pD2) α1D (rat aorta) (converted)
T5 construct: α1B (rat spleen) and α1D (rat aorta) receptors; from tissue; host or cells: rat aorta strips, endothelium removed
T5 sequence (P23944 1-561): T3 sequence (P23944 1-561)

[6] = tested on: Anesthetized Dogs; assay: Mean arterial pressure (MAP) in anesthetized dogs; type: in vivo, dog; details: iv dose causing a maximum increase in MAP of 20 mm Hg, anesthetized female dogs
Excerpt: (§2) In vivo Functional Assays-Assessment of Intrurethral Pressure (IUP) and Mean Arterial Pressure (MAP) in Anesthetized Dogs
(§3) Female dogs (Marshall Farms, North Rose, N.Y.) greater that 2 years of age and weighing between 12 and 15 kg were used in these studies. At least 2 weeks prior to any agonist dosing, dogs were instrumented for the chronic measurement of arterial blood pressure by implanting a telemetry transducer/transmitter (TA11PA-C40, Data Sciences International, St. Paul, Minn.) into a carotid artery.
(§4) On the test day, dogs fasted since the previous afternoon were pre-anesthetized with thiopental sodium 15 mg/kg i.v. (Pentothal™, Abbott) and intubated. Anesthesia was maintained by allowing the dog to spontaneously breathe a mixture of isoflurane (2.5 to 3 volume %) and oxygen delivered by a Narkomed Standard anesthesia system (North American Drager, Telford, Pa.). An Abbocath-T™ i.v. catheter (18-G, Abbott) was inserted into the cephalic vein for the administration of agonists. A telemetry receiver (RA1310, DataSciences) was placed under the head of each dog and was interfaced to a computerized data acquisition system (Modular Instruments Inc.(MI2), Malvern, Pa.) which allowed for the continuous calibrated recording of arterial blood pressure which was electronically filtered to determine its mean value (MAP).
(§5) Dogs with chronic telemetry implants anesthetized as described above were placed in dorsal recumbency and a balloon catheter was inserted into the urethral orifice and advanced approximately 15 cm until the tip was well inside the bladder. The balloon was then inflated with 1 ml of room air and the catheter slowly withdrawn until resistance (corresponding to the bladder neck) was evident. The balloon was then deflated and the catheter withdrawn an additional 2 cm. The balloon was then reinflated and its catheter port connected to a Gould Statham P23Dd pressure transducer interfaced to a computerized data acquisition system (Modular Instruments, Inc., Malvern, Pa.) for the measurement of intraurethral pressure. Increasing iv doses of test agonists were administered and the maximum effect of each dose on IUP was recorded. The effect of each dose was allowed to return to baseline before the next dose was given.
(§6) From the resulting dose response curve, an ED5 value, for the dose causing a maximum increase in IUP of 5 mm Hg, could be estimated. An ED20 value for the dose causing a maximum increase in MAP of 20 mm Hg could also be estimated. A selectivity ratio of MAP ED20 vs. IUP ED5 was calculated.

[7] = tested on: Anesthetized Dogs; assay: Intraurethral pressure (IUP) in anesthetized dogs; type: in vivo, dog; details: Canis lupus familiaris; iv dose causing a maximum increase in IUP of 5 mm Hg, anesthetized female dogs; read-out: Mean IUP ED5
[8] = target: T6, α1A (rabbit urethra) (Oryctolagus cuniculus, UniProt O02824); assay: Agonist contraction of smooth muscle tissue, rabbit urethra; type: cell-based; details: rabbit urethra; read-out: Agonist Tissue Response (pD2) α1A (rab ureth) (converted)
T6 construct: tested for α1A functional activity using rabbit urethra; from tissue; host or cells: rabbit urethra
T6 sequence (O02824 1-466): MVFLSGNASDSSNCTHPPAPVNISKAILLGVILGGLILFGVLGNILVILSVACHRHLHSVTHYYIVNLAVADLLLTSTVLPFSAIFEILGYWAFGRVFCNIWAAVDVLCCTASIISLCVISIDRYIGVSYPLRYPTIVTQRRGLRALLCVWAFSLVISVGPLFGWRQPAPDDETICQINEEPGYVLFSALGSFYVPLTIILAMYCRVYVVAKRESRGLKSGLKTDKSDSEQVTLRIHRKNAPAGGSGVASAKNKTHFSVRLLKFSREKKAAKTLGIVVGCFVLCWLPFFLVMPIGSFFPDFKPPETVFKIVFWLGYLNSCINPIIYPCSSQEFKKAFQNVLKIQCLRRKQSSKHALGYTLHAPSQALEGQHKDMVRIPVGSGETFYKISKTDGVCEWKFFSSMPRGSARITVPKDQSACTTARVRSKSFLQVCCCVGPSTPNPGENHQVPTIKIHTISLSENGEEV
Experimental: Most of the compounds were tested for α1A functional activity using rabbit urethra as follows. Female New Zealand white rabbits (2.0-3.5 Kg) were sedated with CO2 and decapitated. […] Subsequent experimental conditions were as described above for the other tissues. Agonist concentration response curves were cumulative except for the vas deferens assay in which the transient response made such measurements impractical.

[9] = tested on: Anesthetized Dogs; assay: Intraurethral pressure (IUP) in anesthetized dogs; type: in vivo, dog; details: iv, anesthetized female dogs
Excerpt: as §2, §3, §4, §5, §6

Structure (SMILES)	Ki [1] [µM]	Ki [2] [µM]	Ki [3] [µM]	EC50 [4] [µM]	EC50 [5] [µM]	Mean MAP ED20 [6] [nmol/kg]	ED (5 mmHg IUP increase) [7] [µmol/kg]	EC50 [8] [µM]	ED (5 mmHg IUP increase) ([9]; Canis lupus familiaris, iv dose causing a maximum increase in IUP of 5 mm Hg, read-out: Mean IUP ED5) [µmol/kg]	Mean Selectivity Ratio MAP ED20/IUP ED5 [9]
CCS(=O)(=O)Nc1cccc(Cc2c[nH]cn2)c1.O=C(O)/C=C\C(=O)O [Example 30, N-[3-(1H-imidazol-4-ylmethyl)phenyl]ethanesulfonamide, maleate]	0.135	0.882	0.279	0.692	> 1000	80.5	0.0121	–	–	–
CCS(=O)(=O)Nc1cccc2c1CCC2c1c[nH]cn1.O=C(O)/C=C\C(=O)O (stereo not drawn) [Example 39, N-[1-(1H-imidazol4-yl)-2,3-dihydro-1H-inden-4-yl]ethanesulfonamide, maleate]	–	–	–	–	–	5.6	0.0044	–	–	–
CC(=O)Nc1cccc2c1CCCC2c1c[nH]cn1.O=C(O)/C=C\C(=O)O (stereo not drawn) [Example 16, N-[5,6,7,8-tetrahydro-5-(1H-imidazol-4-yl)-1-naphthalenyl]acetamide, maleate]	–	–	–	–	–	220	0.0684	–	–	–
CS(=O)(=O)Nc1cccc2c1OCCC2c1c[nH]cn1.O=C(O)/C=C\C(=O)O (stereo not drawn) [Example 19, N-[4-(1H-imidazol-4-yl)-3,4-dihydro-2H-chromen-8-yl]methanesulfonamide, maleate]	–	–	–	–	–	–	0.0671	–	–	–
CS(=O)(=O)Nc1cccc2c1CCC[C@@H]2c1c[nH]cn1 [Example 10, (−)-N-[(5S)-5-(1H-imidazol-4-yl)-5,6,7,8-tetrahydro-1-naphthalenyl]methanesulfonamide]	–	–	–	–	–	>300	> 0.3	–	–	–
O=C(O)/C=C\C(=O)O.O=S(=O)(CC(F)(F)F)Nc1cccc2c1CCCC2c1c[nH]cn1 (stereo not drawn) [Example 20, N-[5,6,7,8-tetrahydro-5-(1H-imidazol-4-yl)-1-naphthalenyl]-2,2,2-trifluoroethanesulfonamide, maleate]	0.253	–	–	> 1000	> 1000	885	–	2.82	0.209	6.1
Cl.Cn1cnc(C2CCCc3c(NS(C)(=O)=O)cccc32)c1 (stereo not drawn) [Example 14, N-[5,6,7,8-tetrahydro-5-(1-methyl-1H-imidazol-4-yl)-1-naphthalenyl]methanesulfonamide, hydrochloride]	0.277	2.02	1.04	> 1000	> 1000	>1000	> 1	–	–	–
CS(=O)(=O)Nc1cccc2c1CCC[C@H]2c1c[nH]cn1 [Example 9, (+)-N-[(5R)-5-(1H-imidazol-4-yl)-5,6,7,8-tetrahydro-1-naphthalenyl]methanesulfonamide]	–	–	–	–	–	48.7	0.0204	–	–	–
